From patent publication US20170135981A1, “Method for Suppressing Glucagon Secretion of an SGLT2 Inhibitor” (AstraZeneca AB, priority 2014, published 2017)

Test system: glucagon secretion
Test: Plasma glucagon during a liquid meal tolerance test (MTT) at week 24, radioimmunoassay, randomized 24-week study
Format: in vivo, human
Details: summary of Table 1, added to metformin
Procedure: At the beginning of a 4-week lead-in period, all patients were switched to the nearest metformin XR dose (1,500-2,000 mg/day) for the lead-in period and for the duration of the 24-week treatment period. Patients were then randomized to receive saxagliptin 5 mg/day and dapagliflozin 10 mg/day plus metformin (SAXA+DAPA+MET), saxagliptin 5 mg/day and placebo plus metformin (SAXA+MET), or dapagliflozin 10 mg/day and placebo plus metformin (DAPA+MET) for 24 weeks. Patients were prohibited from receiving other antidiabetic medications (except for open-label rescue medications) during the screening and treatment periods. Postprandial glucose (PPG) was assessed at baseline and week 24 following the administration of a liquid meal tolerance test (MTT, 360-375 kcal; protein, 14-28.2 g; fat, 10.5-14 g; carbohydrates 42-45 g; sugars as a component of carbohydrates, 16.8-22 g, investigation-site dependent). […] The mean change from baseline in the area under the curve from 0 to 180 minutes (AUC0-180 min) was calculated for glucagon obtained during the MTT. Plasma glucagon was measured by radioimmunoassay (LINCO Research, St. Charles, Mo.). AUC0-180 min was calculated based on the trapezoidal rule from model-based estimates of the mean at each time point, including observations prior to rescue. […]

**Q.** Which “effect on glucagon levels (in words)” value does the source give for `CCOc1ccc(Cc2cc([C@@H]3O[C@H](CO)[C@@H](O)[C@H](O)[C@H]3O)ccc2Cl)cc1` [dapagliflozin] here?
**A.** increased compared to control
